Test results from US20150190416A1, “FILAGGRIN PRODUCTION PROMOTER, THERAPEUTIC AGENT FOR DISEASES ASSOCIATED WITH REDUCTION IN PRODUCTION OF FILAGGRIN, AND METHOD FOR SCREENING FOR SAID THERAPEUTIC AGENT” (KYOTO UNIVERSITY, priority 2012, published 2015).

Tests used:
[1] = system: GPR142; assay: Action on adenylate cyclase activity (cAMP) in GPR142-overexpressing HEK293T cells (Examples 8 and 9); assay type: cell-based, human; settings: forskolin 10 μM, IBMX 1 mM
Description: In this example, the cAMP production-suppressing effect of Compound 1 was confirmed.
1) 6×10^4 cells/well of HEK293T cells were plated on a collagen-coated 24-well plate, a culture medium containing DMEM medium (Invitrogen) supplemented with penicillin (50 μg/ml), streptomycin (50 μg/ml), and fetal bovine serum (FBS) (10%, v/v) was added to the plate, and the cells were cultured under the conditions of 37° C. and 5% CO2.
2) A GPR142PCXN mammalian expression vector was prepared in the same manner as in the step 2) of Example 7.
3) After culture for 1 day under the conditions of the step 1), HEK293T cells were transfected with 0.2 μg of the GPR142PCXN mammalian expression vector per well by using a transfection reagent Fugene™ HD (Promega Corporation) according to the manufacturer's protocol. As a control, cells transfected only with the PCXN mammalian expression vector were used.
4) After culture for 1 day after the transfection described above, 1 mM of isobutylmethylxanthine (IBMX), which was a cAMP phosphodiesterase inhibitory substance, was added to HEK293T cells, and thereafter, the cells were cultured for 10 minutes at 37° C.
5) Next, the medium was exchanged for the culture medium to which 0.1 nM to 1000 nM of a DMSO solution of Compound 1, 10 μM of forskolin, and 1 mM of IBMX per well were added, and the cells were further cultured for 20 minutes at 37° C. As a control, a solvent (vehicle), 10 μM of forskolin, and 1 mM of IBMX were added.
6) The cells cultured in the step 5) were lysed by 0.1 mol/L of HCl. The cAMP concentration within the cells was measured by using Cyclic AMP EIA Kit (Cayman Chemical Company) according to the manufacturer's protocol. The result is shown as the ratio (%) of the cAMP concentration in the cells treated with Compound 1 with respect to the cAMP concentration in the control example defined as 100%.
In this example, the cAMP production-suppressing effect of Compound 2 or 3 was confirmed.
HEK293T cells were cultured in the same manner as in the steps 1) to 4) of Example 8. Next, the cells were cultured in the same manner as in the step 5) of Example 8 except that, in the step 5) of Example 8, each of a methanol solution of Compound 3, a DMSO solution of Compound 2, and a DMSO solution of Comparative Compound 2 was used at 1,000 nM per well instead of Compound 1. The cAMP concentration in the cultured cells was measured in the same manner as in the step 6) of Example 8.

[2] = system: GPR142; assay: Blocking effect by GPR142 RNAi in NHEK cells (Examples 5 and 6); assay type: cell-based, human; settings: 1 day; for induction of FLG mRNA expression: dependence on GPR142: GPR142 siRNA, compound 10 nM
Description: In this example, it was confirmed that the expression-inducing effects of Compound 1 on GPR142 mRNA and FLG mRNA in NHEK cells were blocked by GPR142 RNAi.
1) 5×10^4 cells/well of NHEK cells (Invitrogen) were plated on a 24-well plate. Then, 500 μl of a culture medium containing a medium for proliferating normal human epidermal keratinocytes (HuMedia-KG2, KURABO INDUSTRIES LTD.) supplemented with hEGF (0.1 ng/ml), insulin (10 μg/ml), hydrocortisone (0.5 μg/ml), gentamycin (50 μg/ml), amphotericin B (50 ng/ml), and bovine brain pituitary extract (BPE) (0.4%, v/v) were added to the plate, and the cells were cultured under the conditions of 37° C. and 5% CO2.
2) After culture under the conditions of the step 1) for 1 day, the medium was exchanged for the culture medium of the step 1) to which CaCl2 (1.2 mM in terms of Ca) was further added as Ca, and culture was conducted under the conditions of 37° C. and 5% CO2. After culture for 1 day, the medium was exchanged for the same culture medium containing Ca, and culture was further conducted for 1 day.
3) The NHEK cells of the step 2) were transfected with 50 nM of siRNA per well of the 24-well plate by using a transfection reagent, Lipofectamine RNA Max (Invitrogen) according to the manufacturer's protocol.
The sequences of the used three kinds of GPR142 siRNAs and the sequences of the used control siRNAs (all the siRNAs are manufactured by Invitrogen) are described below.
4) After culture for 1 day after the transfection with siRNA in the step 3), the medium was exchanged for the culture medium of the step 1) to which a DMSO solution of Compound 1 was added at 10 nM per well, and culture was further conducted for 1 day. As a control, a solvent only (vehicle) was added.
5) An extraction reagent (TRIzol™, Invitrogen) was used, and according to the manufacturer's protocol, total RNA was extracted from each of cells treated with the medicament. A reverse transcriptase reagent (Prime Script™, Takara) was used, and according to the manufacturer's protocol, cDNA was prepared from the total RNA. Next, real-time PCR was conducted by using the following primers and SYBR™ Premix Ex Taq (Takara) with a CFX96 real-time PCR instrument according to the manufacturer's protocol, and the amounts of GPR142 mRNA and FLG mRNA expression were measured. The result of measurement is shown as a GAPDH ratio.
In this example, it was confirmed that the expression-inducing effects of Compound 2 or 3 on GPR142 mRNA and FLG mRNA in NHEK cells were blocked by GPR142 RNAi.
NHEK cells were transfected in the same manner as in Example 5 except that, in the steps 1) to 3) of Example 5, two kinds of GPR142 siRNAs and two kinds of control siRNAs, i.e., GPR142-1 (#HSS139493) and GPR142-3 (#HSS179846) and Control-1 (LOW GC, #129350-200), and Control-3 (HIGH GC, #129350-400) were used as GPR142 siRNAs and control siRNAs, respectively. After culture for 1 day after the transfection was conducted in the same manner as in the step 4) of Example 5, the medium was exchanged for the culture medium to which each of a DMSO solution of Compound 1, a DMSO solution of Compound 2, or a methanol solution of Compound 3 was added at 10 nM per well, and culture was further conducted for 1 day. As a control, a solvent only (vehicle) was added. Regarding each of cells treated with the medicament, real-time PCR was conducted to measure the amounts of GPR142 mRNA and FLG mRNA in the same manner as in the step 5) of Example 5. The results of the measurement are shown as a GAPDH ratio.

[3] = calcium priming, siRNA 50 nM, Compound 1 10 nM

Structure (SMILES) | cAMP production-suppressing action, in words ([1]; GPR142-overexpressing HEK293T cells, 1,000 nM) | induction of FLG mRNA expression: dependence on GPR142 [2] | FLG mRNA expression in the presence of GPR142 siRNA [2, 3] | GPR142 mRNA expression in the presence of GPR142 siRNA [2, 3] | cAMP production ([1]; GPR142-overexpressing HEK293T cells, 0.1 nM to 1000 nM, 20 minutes) | decrease of cAMP production ([1]; GPR142-overexpressing HEK293T cells, 1,000 nM, 20 minutes)
O=C(CCCCCN1C(=O)c2cccc3cccc(c23)C1=O)NO [Comparative Compound 2, 6-(1,3-Dioxo-1H,3H-benzo[de]isoquinolin-2-yl)hexanoic acid hydroxyamide, reference compound] | no cAMP production-suppressing action was observed |  |  |  |  | 
CCc1ccc(OCc2ccccc2C(=O)Nc2ccc3nc(C)cc(N)c3c2)cc1.Cl [Compound 1, N-(4-Amino-2-methyl-6-quinolyl)-2-[(4-ethylphenoxy)methyl]benzamide hydrochloride] |  | mediated by GPR142 | suppressed by GPR142 siRNA | suppressed by GPR142 siRNA | decreased cAMP production via GPR142 dose-dependently | 
CC[C@H](C)[C@H]1O[C@]2(CC[C@@H]1C)C[C@@H]1C[C@@H](C/C=C(\C)[C@@H](O[C@H]3C[C@H](OC)[C@@H](O[C@H]4C[C@H](OC)[C@@H](O)[C@H](C)O4)[C@H](C)O3)[C@@H](C)/C=C/C=C3\CO[C@@H]4[C@H](O)C(C)=C[C@@H](C(=O)O1)[C@]34O)O2 [Compound 2, Ivermectin, reference compound] |  | mediated by GPR142 |  |  |  | about 20%
